Legend:
Type in all cases: in vivo, mouse
serum IgE = assay: Serum IgE in ovalbumin-sensitized asthma mice (immunoenzymatic assay); conditions: 30 mg/kg PO
Protocol: (§1) In the present experiment, 6-week-old Balb/c female mice having a body weight of about 20 g in average were used as experimental animals. After 1 week of acclimation, animals showing no abnormal findings on physical examination were used as subjects. 2 mg of aluminium hydroxide (A8222, Sigma, St. Louis, Mo.) and 20 μg of ovalbumin (A5503, Sigma, St. Louis, Mo.) were suspended in 200 μl of phosphate buffer (pH 7.4) and then injected into the peritoneal cavity of mouse for sensitization. On days 21 to 23 after the first intraperitoneal administration of ovalbumin, inhalation challenge was performed for 30 min with 1% ovalbumin using an ultrasonic atomizer. 24 hours after the last antigen administration, airway hyperresponsiveness was measured. 48 hours later, a lethal dose of pentobarbital (Entobal, Hanlim Pharmaceutical Co., Ltd.) was administered, body weight measurement and bronchotomy were performed, and bronchoalveolar lavage was performed with a total 1.2 mL of physiological saline, and then, samples were collected. […] Seven white mice were used for each group.
(§2) To measure serum IgE and ovalbumin-specific IgE, an immunoenzymatic assay was used. IgE level was measured using a commercially available kit (Biolegend Ins., California, USA). […] For color development, 3,3′,5,5′-tetramethylbezidine substrate was allowed to react, and the spectroscopic absorbance was measured at 450 nm.

ovalbumin-specific IgE = assay: Ovalbumin-specific IgE in serum of ovalbumin-sensitized asthma mice (ELISA); conditions: 30 mg/kg PO, mean±S.E.
Protocol: as §1, §2

[1] = tested on: ovalbumin-sensitized asthma animal models; assay: Inflammatory cells in bronchoalveolar lavage fluid of ovalbumin-sensitized asthma mice; conditions: 30 mg/kg PO
Protocol: as §1

interleukin-4 = assay: Interleukin-4 in bronchoalveolar lavage fluid (ELISA); conditions: 30 mg/kg PO, mean±S.E.
Protocol: as §1, with “group. […]” for “group.”
(§3) Briefly, 100 μl of bronchoalveolar lavage fluid was added to a well plate and allowed to react for 1 hour. […] Absorbance was measured at 450 nm.

interleukin-5 = assay: Interleukin-5 in bronchoalveolar lavage fluid (ELISA); conditions: 30 mg/kg PO, mean±S.E.
Protocol: as §1, with “group. […]” for “group.”
as §3

interleukin-13 = assay: Interleukin-13 in bronchoalveolar lavage fluid (ELISA); conditions: 30 mg/kg PO, mean±S.E.
Protocol: as §1, with “group. […]” for “group.”
as §3

CC(C)(O)c1ccccc1CC[C@@H](SCC1(CC(=O)O)CC1)c1cccc(/C=C/c2ccc3ccc(Cl)cc3n2)c1 [Mon, montelukast]
serum IgE antibody level (serum IgE): 1.8 ± 0.28 µg/mL | IgE (serum IgE; mean±S.E., Table 1): 1.8 ± 0.28 ng/mL | OVA-specific IgE (ovalbumin-specific IgE): 108 ± 83.0 ng/mL | number of eosinophils in bronchoalveolar lavage fluid ([1]; OVA group (74±16.0)×10^5): 36±20.4 ×10^5 | number of total inflammatory cells in bronchoalveolar lavage fluid ([1]; OVA group (180±22.2)×10^5): 98±19.3 ×10^5 | IL-4 (interleukin-4): 34.6 ± 6.52 pg/mL | IL-5 (interleukin-5): 32.4 ± 4.46 pg/mL | IL-13 (interleukin-13): 65.7 ± 18.86 pg/mL

Source: US10413579B2, “Pharmaceutical composition for preventing or treating asthma comprising Pistacia weinmannifolia J. Poiss. ex Franch extract or fraction thereof” (Korea Research Institute of Bioscience and Biotechnology, priority 2013, dated 2019)
